The source made the active and inactive calls. No cut-off for these calls is given here.

Data set [1] can be described thus: Induction of cell cycle arrest in tamoxifen-resistant human LCC2 cells assessed as accumulation of cells at G2/M phase at 5 uM incubated for 48 hrs by propidium iodide staining based flow cytometry (reference value: 11.42%). The class given is functional. Background: Flow cytometry measures light scatter and fluorescence of single cells or particles in a stream.

Data set [2] is described as follows: AUC(0 to t) in Balb/c mouse at 2 mg/kg, iv by LC-MS/MS analysis. It counts as ADME, organism-based. Conditions: in vivo.
In data set [3] the target is Protein cereblon/Nuclear receptor coactivator 1 (Homo sapiens) (UniProt Q15788+Q96SW2). Kind of data set: PROTAC activity at CRBN/SRC-1 in human MCF7 cells assessed as induction of SRC-1 degradation at 0.01 to 10 uM measured after 36 hrs by immunoblot analysis. Conditions: dose 0.01-10 µM. It counts as cell-based.
Chain of Protein cereblon/Nuclear receptor coactivator 1 (Homo sapiens) (Q15788 whole entry, looked up): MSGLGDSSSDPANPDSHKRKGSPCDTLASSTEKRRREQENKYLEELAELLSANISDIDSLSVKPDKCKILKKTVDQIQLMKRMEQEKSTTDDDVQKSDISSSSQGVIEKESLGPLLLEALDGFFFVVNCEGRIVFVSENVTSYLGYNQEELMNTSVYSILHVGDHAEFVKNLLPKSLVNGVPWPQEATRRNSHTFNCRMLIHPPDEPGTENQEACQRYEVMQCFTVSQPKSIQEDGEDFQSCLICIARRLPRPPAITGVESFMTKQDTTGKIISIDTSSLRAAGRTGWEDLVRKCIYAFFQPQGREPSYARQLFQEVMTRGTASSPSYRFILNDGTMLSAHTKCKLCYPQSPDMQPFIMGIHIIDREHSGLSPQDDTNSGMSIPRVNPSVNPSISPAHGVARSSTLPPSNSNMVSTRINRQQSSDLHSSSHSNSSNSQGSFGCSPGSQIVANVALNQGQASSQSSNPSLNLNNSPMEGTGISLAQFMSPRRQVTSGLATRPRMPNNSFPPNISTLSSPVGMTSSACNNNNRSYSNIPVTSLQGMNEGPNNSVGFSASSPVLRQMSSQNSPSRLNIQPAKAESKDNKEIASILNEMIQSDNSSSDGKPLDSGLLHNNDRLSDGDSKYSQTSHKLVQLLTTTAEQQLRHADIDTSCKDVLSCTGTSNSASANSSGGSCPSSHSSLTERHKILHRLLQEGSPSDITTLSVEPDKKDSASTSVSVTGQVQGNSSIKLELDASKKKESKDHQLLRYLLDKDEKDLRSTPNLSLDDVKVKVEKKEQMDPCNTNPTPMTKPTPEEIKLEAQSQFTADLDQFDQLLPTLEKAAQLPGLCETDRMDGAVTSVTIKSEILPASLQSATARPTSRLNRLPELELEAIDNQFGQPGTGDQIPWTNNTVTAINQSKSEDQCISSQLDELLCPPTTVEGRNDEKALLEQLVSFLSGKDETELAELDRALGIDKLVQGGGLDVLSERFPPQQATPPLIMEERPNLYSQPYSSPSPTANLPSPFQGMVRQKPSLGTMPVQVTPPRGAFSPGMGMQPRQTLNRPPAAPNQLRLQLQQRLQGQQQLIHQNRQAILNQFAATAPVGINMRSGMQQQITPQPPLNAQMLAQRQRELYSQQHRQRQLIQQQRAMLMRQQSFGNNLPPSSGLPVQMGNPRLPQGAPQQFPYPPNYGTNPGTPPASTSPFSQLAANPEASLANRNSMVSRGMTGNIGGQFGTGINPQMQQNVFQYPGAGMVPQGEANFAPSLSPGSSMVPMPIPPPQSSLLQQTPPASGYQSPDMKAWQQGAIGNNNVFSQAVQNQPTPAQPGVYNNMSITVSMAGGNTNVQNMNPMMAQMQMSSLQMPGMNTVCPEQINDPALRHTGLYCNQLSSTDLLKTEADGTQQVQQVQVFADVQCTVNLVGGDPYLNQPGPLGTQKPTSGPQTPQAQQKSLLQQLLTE
Chain of Protein cereblon/Nuclear receptor coactivator 1 (Homo sapiens) (Q96SW2 whole entry, looked up): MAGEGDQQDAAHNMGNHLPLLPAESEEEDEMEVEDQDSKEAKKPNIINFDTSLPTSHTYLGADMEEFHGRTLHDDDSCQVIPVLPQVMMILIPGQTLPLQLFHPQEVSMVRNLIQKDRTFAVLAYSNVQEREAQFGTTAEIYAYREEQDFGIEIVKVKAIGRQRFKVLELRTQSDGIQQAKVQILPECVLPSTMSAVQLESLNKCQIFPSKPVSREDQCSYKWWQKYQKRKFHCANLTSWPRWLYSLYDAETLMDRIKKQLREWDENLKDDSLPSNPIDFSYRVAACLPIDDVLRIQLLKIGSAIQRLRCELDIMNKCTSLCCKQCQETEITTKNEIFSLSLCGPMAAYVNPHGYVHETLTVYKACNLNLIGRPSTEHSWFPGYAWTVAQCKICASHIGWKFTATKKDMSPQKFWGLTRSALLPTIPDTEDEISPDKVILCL
The nature of data set [4]: Induction of cell cycle arrest in tamoxifen-resistant human LCC2 cells assessed as accumulation of cells at S phase at 20 uM incubated for 48 hrs by propidium iodide staining based flow cytometry (reference value: 9.72%). The class given is functional.
The target in data set [5] is T1, Protein cereblon/Nuclear receptor coactivator 3 (Homo sapiens, UniProt Q9Y6Q9+Q96SW2). As to the kind of experiment: PROTAC activity at CRBN/SRC-3 in tamoxifen-resistant human LCC2 cells assessed as induction of SRC-3 degradation at 1 uM preincubated with CRBN ligand-pomolidomide for 2 hrs followed by incubation with compound and measured after 36 hrs by immunoblot analysis. The class given is cell-based. Conditions: Tamoxifen-resistant LCC2 cell.
Target sequence in this assay (Q96SW2 whole entry partner): as the sequence (Q96SW2 whole entry, looked up) above
Target sequence in this assay (Q9Y6Q9 2-1424 limits assumed): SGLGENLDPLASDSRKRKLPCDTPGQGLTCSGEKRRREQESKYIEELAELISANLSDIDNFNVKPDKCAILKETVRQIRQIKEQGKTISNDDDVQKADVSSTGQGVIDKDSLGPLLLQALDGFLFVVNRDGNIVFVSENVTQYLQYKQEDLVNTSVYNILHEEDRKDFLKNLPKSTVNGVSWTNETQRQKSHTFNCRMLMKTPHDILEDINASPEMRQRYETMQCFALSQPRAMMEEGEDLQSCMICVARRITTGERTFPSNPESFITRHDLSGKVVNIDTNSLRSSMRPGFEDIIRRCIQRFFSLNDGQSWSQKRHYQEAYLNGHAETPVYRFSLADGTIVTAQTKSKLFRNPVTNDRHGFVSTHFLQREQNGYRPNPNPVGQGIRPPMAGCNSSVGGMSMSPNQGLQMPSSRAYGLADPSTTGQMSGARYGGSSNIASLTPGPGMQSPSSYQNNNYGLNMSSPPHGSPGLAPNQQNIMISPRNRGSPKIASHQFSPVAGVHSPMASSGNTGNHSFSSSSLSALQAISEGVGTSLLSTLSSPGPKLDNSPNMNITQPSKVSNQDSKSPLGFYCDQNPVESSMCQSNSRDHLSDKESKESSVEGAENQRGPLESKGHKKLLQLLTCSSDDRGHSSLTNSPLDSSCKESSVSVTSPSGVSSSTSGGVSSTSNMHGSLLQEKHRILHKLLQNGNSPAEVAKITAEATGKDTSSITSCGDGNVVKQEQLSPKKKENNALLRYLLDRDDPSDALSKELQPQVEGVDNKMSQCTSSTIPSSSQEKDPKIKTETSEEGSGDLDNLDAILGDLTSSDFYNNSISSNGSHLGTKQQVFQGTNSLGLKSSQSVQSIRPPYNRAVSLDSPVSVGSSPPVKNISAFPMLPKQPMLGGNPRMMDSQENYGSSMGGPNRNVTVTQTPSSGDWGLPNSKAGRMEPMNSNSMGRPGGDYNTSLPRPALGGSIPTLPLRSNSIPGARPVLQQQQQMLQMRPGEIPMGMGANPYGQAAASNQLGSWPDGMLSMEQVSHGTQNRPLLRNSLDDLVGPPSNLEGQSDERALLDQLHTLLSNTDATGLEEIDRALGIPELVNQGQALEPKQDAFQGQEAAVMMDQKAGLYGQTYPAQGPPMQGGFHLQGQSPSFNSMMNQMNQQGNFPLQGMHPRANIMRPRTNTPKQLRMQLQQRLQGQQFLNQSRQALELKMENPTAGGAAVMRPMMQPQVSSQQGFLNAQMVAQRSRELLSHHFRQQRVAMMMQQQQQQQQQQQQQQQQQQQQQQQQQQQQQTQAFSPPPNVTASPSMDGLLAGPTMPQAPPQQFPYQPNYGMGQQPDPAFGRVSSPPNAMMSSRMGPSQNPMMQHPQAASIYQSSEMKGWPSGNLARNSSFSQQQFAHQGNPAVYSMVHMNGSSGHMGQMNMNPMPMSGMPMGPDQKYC

Data set [6] concerns the target T1, Protein cereblon/Nuclear receptor coactivator 3. As to the kind of experiment: PROTAC activity at CRBN/SRC-3 in human MCF7 cells assessed as induction of SRC-3 degradation at 1 uM preincubated with autophagy inhibitor, chloroquine for 2 hrs followed by incubation with compound and measured after 36 hrs by immunoblot analysis. The class given is cell-based. (A western blot detects proteins with antibodies after separation by electrophoresis.)
Target sequence in this assay (Q96SW2 whole entry partner): as the sequence (Q96SW2 whole entry, looked up) above
Target sequence in this assay (Q9Y6Q9 2-1424 limits assumed): as the sequence (Q9Y6Q9 2-1424 limits assumed) above

A short description of data set [7]: Antitumor activity against tamoxifen-resistant human LCC2 cells xenografted in Balb/c mouse assessed as inhibition of tumor growth at 5 uM/Kg, ip administered once every 2 days for 23 days. The class given is functional, Tamoxifen-resistant LCC2 cell. Conditions: time 23 day, at 5 µmol/kg. Background: In xenograft studies the graft and the host belong to different species.

Data set [8] can be described thus: Induction of cell cycle arrest in tamoxifen-resistant human LCC2 cells assessed as accumulation of cells at G1 phase at 5 uM incubated for 48 hrs by propidium iodide staining based flow cytometry (reference value: 78.71%). The class given is functional.
Data set [9] is described as follows: Cmax in Balb/c mouse at 2 mg/kg, iv by LC-MS/MS analysis. Conditions: in vivo. It counts as ADME, organism-based.
Data set [10] deals with Protein cereblon/Eukaryotic peptide chain release factor GTP-binding subunit ERF3A (Homo sapiens) (UniProt Q96SW2+P15170). Kind of data set: PROTAC activity at CRBN/GSPT1-alpha in tamoxifen-resistant human LCC2 cells assessed as degradation of GSPT1 at 10 uM measured after 36 hrs by diaPASEF-based quantitative proteomics analysis. Conditions: Tamoxifen-resistant LCC2 cell.
Chain of Protein cereblon/Eukaryotic peptide chain release factor GTP-binding subunit ERF3A (Homo sapiens) (P15170 whole entry, looked up): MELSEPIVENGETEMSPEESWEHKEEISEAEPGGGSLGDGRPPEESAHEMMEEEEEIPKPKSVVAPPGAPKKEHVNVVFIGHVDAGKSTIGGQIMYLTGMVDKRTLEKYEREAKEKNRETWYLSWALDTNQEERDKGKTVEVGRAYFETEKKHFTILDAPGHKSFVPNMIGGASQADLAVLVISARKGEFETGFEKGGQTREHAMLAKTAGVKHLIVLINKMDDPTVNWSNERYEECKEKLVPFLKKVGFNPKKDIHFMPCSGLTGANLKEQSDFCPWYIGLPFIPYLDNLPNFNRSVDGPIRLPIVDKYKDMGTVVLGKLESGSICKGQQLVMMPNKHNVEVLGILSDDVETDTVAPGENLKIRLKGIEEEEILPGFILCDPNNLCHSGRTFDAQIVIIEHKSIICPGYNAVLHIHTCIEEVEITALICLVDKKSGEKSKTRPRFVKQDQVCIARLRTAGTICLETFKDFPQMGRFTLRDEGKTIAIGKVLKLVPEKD
Chain of Protein cereblon/Eukaryotic peptide chain release factor GTP-binding subunit ERF3A (Homo sapiens) (Q96SW2 whole entry, looked up): as the sequence (Q96SW2 whole entry, looked up) above

Data set [11] is described as follows: AUC (0 to t) in Balb/c mouse at 4 mg/kg, ip by LC-MS/MS analysis. It counts as ADME, organism-based. Conditions: in vivo.
Data set [12] is described as follows: Tmax in Balb/c mouse at 4 mg/kg, ip by LC-MS/MS analysis. It counts as ADME, organism-based. Conditions: in vivo.
For data set [13], the target named is T1, Protein cereblon/Nuclear receptor coactivator 3. As to the kind of experiment: PROTAC activity at CRBN/SRC-3 in human MCF7 cells assessed as induction of SRC-3 degradation incubated for 36 hrs by immunoblot analysis. The class given is cell-based.
For another data set, the system named is Mus musculus. As to the kind of experiment: In vivo PROTAC activity at CRBN/SRC-3 in Balb/c mouse xenografted with tamoxifen-resistant human LCC2 cells assessed as downregulation of ER-alpha protein level in tumor tissues at 5 uM/Kg, ip administered once every 2 days for 23 days and measured on day 25 by western blot analysis. It counts as functional, organism-based. Conditions: time 25.0 day.

Data set [14] can be described thus: Induction of apoptosis in tamoxifen-resistant human LCC2 cells assessed as early apoptotic cells at 20 uM incubated for 48 hrs by AnnexinV-FITC/PI staining based flow cytometry (reference value: 5.92%). It counts as functional, Tamoxifen-resistant LCC2 cell.
The nature of data set [15]: Bioavailability in Balb/c mouse at 4 mg/kg, ip by LC-MS/MS analysis. The class given is ADME, organism-based. Conditions: in vivo.
A further data set has as its system MCF7. As to the kind of experiment: Induction of apoptosis in human MCF7 cells assessed as increase in late apoptotic cells at 1 to 20 uM incubated for 48 hrs by AnnexinV-FITC/PI staining based flow cytometry. The class given is functional, cell-based. Conditions: dose 1-20 µM.
Data set [16] in a line: Induction of apoptosis in tamoxifen-resistant human LCC2 cells assessed as viable cells at 10 uM incubated for 48 hrs by AnnexinV-FITC/PI staining based flow cytometry (reference value: 88.09%). The class given is functional. Conditions: Tamoxifen-resistant LCC2 cell, read-out: Activity.
The nature of data set [17]: Induction of cell cycle arrest in tamoxifen-resistant human LCC2 cells assessed as accumulation of cells at G1 phase at 10 uM incubated for 48 hrs by propidium iodide staining based flow cytometry (reference value: 78.71%). The class given is functional.
The target of data set [18] is T1, Protein cereblon/Nuclear receptor coactivator 3. Kind of data set: Binding affinity to CRBN/SRC-3 in human MCF7 cells assessed as CRBN/compound/SRC-3 ternary complex formation by measuring increase in yellow fluorescence intensity at 10 uM incubated for 6 hrs by immunofluorescence analysis. It counts as cell-based.
Target sequence in this assay (Q96SW2 whole entry partner): as the sequence (Q96SW2 whole entry, looked up) above
Target sequence in this assay (Q9Y6Q9 2-1424 limits assumed): as the sequence (Q9Y6Q9 2-1424 limits assumed) above
The target in a further data set is Cytochrome P450 2C9 (Homo sapiens, UniProt P11712). As to the kind of experiment: Inhibition of CYP2C9 (unknown origin) using diclofenac as substrate. The class given is ADME.
Chain of Cytochrome P450 2C9 (P11712 whole entry): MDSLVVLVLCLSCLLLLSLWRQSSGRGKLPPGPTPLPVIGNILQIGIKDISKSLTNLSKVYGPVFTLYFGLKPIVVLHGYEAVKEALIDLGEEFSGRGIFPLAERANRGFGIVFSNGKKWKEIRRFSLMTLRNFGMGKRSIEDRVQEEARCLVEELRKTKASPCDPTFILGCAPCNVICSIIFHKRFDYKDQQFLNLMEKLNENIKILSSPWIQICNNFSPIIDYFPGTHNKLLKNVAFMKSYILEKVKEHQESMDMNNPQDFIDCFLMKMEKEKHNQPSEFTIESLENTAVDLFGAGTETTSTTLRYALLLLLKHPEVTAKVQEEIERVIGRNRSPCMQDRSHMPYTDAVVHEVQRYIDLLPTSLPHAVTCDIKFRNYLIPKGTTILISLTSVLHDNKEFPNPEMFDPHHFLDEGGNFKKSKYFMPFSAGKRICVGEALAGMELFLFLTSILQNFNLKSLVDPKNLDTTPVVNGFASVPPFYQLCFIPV
Data set [19] deals with T1, Protein cereblon/Nuclear receptor coactivator 3. As to the kind of experiment: PROTAC activity at CRBN/SRC-3 in tamoxifen-resistant human LCC2 cells assessed as downregulation of ER-alpha mRNA expression at 0.01 to 10 uM incubated for 36 hrs by qRT-PCR analysis. The class given is cell-based. Conditions: Tamoxifen-resistant LCC2 cell, dose 0.01-10 µM.
Target sequence in this assay (Q96SW2 whole entry partner): as the sequence (Q96SW2 whole entry, looked up) above
Target sequence in this assay (Q9Y6Q9 2-1424 limits assumed): as the sequence (Q9Y6Q9 2-1424 limits assumed) above

As a reminder, the AUC(0-t) is exposure summed from dosing to a finite time, without extrapolation to infinity. The low end stands for low exposure, the high end for high exposure. What is called TGI is the reduction of tumour growth relative to the control group. In general, Cmax refers to the peak of the concentration-time curve. By Tmax is commonly meant the time at which the peak concentration occurs. For orientation: DC50 means the concentration giving 50% degradation. As usually defined, the bioavailability is dose-corrected exposure relative to a reference, in per cent. By IC50 is commonly meant the point on the concentration scale where inhibition reaches its midpoint. The low end stands for inhibition by little substance, the high end for a need for much substance. `C/C(=N\Nc1nc2ccccc2n1C1CN(C2CCN(c3cccc4c3C(=O)N(C3CCC(=O)NC3=O)C4=O)CC2)C1)c1ccccn1` (configuration not stated): the Activity in data set [1] is given as 4.62%; in [3] it was “Active; Moderate Degradation Against Src-1 Compared To Src-3 Observed”; in data set [4], 11.58%; in data set [8], 81.41%; in data set [14], 31.96%; in data set [17], 85.01%. The AUC(0-t) in [2] was 318 ng·h/mL; in data set [11], 49.1 ng·h/mL. For the same compound, the result in data set [5] and in data set [10] was inactive. The result (in data set [6]; in the data set with Mus musculus; with MCF7; in data set [18]; in data set [19]) was Active. Further, the inhibition of tumour growth (TGI) in [7] worked out at 54%. The compound also showed a Cmax in [9] of 148 ng/mL. In addition, the Tmax in [12] stood at 19.8 min. The DC50 in data set [13] is 31 nM. The compound also came in with a bioavailability in data set [15] of 8%. Further, the viability at 10 µM in data set [16] was found to be 48.7%. Further, the IC50 against Cytochrome P450 2C9 was over 10000 nM.

The values above are taken from ChEMBL document CHEMBL6178017, “Intercepting the Downstream of the Estrogen Receptor Signaling Pathway: Discovery of a Potent and Efficient SRC-3 PROTAC Degrader for Overcoming Endocrine Resistance Breast Cancer” (J Med Chem, 2025).
